31 compounds from ChEMBL document CHEMBL5352389, “Design and synthesis of chromone-based monoamine oxidase B inhibitors with improved drug-like properties” (Eur J Med Chem, 2022) can be followed below.

The target in data set [1] is T1, Amine oxidase [flavin-containing] A (Homo sapiens, UniProt P21397).
T1 sequence (P21397 whole entry): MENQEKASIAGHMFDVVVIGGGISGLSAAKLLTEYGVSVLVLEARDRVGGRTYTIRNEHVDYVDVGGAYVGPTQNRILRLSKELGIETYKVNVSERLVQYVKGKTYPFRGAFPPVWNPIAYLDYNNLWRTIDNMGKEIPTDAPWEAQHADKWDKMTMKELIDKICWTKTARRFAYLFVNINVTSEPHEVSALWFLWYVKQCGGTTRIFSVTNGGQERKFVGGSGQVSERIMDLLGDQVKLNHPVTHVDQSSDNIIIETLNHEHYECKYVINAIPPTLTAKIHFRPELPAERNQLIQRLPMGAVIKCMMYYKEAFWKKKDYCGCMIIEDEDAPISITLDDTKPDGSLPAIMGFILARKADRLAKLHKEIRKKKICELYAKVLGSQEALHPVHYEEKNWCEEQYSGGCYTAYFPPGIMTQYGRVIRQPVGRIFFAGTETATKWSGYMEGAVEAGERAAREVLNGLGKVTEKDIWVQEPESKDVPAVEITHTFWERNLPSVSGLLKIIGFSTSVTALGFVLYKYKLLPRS
The data set is described as follows: Inhibition of human MAO-A using p-tyramine as substrate at 10 uM incubated for 15 mins by Amplex red and horseradish peroxidase based fluorescence assay. As to conditions: 0.25 h; call rule not given here.

For data set [2], the species on record is Homo sapiens. The data set is described as follows: Selectivity index, ratio of IC50 for human MAO-A to IC50 for human MAO-B.
In data set [3] the target is T2, Amine oxidase [flavin-containing] B (Homo sapiens, UniProt P27338).
T2 sequence (P27338 whole entry): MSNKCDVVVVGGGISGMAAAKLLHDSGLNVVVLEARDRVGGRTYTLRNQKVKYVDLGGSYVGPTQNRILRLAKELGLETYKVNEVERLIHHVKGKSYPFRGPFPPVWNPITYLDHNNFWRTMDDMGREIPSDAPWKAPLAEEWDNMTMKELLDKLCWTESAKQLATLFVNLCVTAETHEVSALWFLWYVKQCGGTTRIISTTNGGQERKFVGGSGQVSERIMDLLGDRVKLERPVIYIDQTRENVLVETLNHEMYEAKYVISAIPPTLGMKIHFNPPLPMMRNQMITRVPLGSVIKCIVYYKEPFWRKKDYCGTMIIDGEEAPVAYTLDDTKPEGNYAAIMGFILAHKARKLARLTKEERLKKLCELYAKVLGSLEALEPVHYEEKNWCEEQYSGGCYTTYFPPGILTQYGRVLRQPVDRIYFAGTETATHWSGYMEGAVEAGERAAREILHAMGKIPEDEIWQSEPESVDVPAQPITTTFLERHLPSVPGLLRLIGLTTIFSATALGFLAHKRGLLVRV
The experiment in a line: Inhibition of human MAO-B using p-tyramine as substrate incubated for 15 mins by Amplex red and horseradish peroxidase based fluorescence assay.

Data set [4] concerns the target T3, MAO-A (amine oxidase [flavin-containing] A) (Homo sapiens, UniProt P21397).
T3 sequence (P21397 whole entry): T1 sequence (P21397 whole entry)
The experiment in a line: Inhibition of human MAO-A using p-tyramine as substrate incubated for 15 mins by Amplex red and horseradish peroxidase based fluorescence assay relative to control. As to conditions: human MAO-A enzyme, probe p-tyramine.

Data set [5] can be described thus: Cytotoxicity against human SH-SY5Y cells assessed as cell viability by measuring metabolic activity upto 10 uM incubated for 24 hrs by resazurin dye based assay relative to control. The class given is toxicity. As to conditions: read-out: Activity.
Data set [6] is described as follows: Cytotoxicity against human SH-SY5Y cells assessed as cell viability by measuring lysosomal activity upto 10 uM incubated for 24 hrs by neutral red uptake assay relative to control. The class given is toxicity, cell-based. As to conditions: read-out: Activity.
Data set [7] relates to SH-SY5Y. The data set is described as follows: Iron(III) chelating activity in FeNTA-treated human SH-SY5Y cells assessed as cell viability by measuring lysosomal activity at 1 to 10 uM measured after 24 hrs by neutral red uptake assay (reference value: 66.5 +/- […] %). The class given is cell-based. To be noted: dose 1-10 µM.
Data set [8] addresses T1, Amine oxidase [flavin-containing] A. The data set is described as follows: Inhibition of human MAO-A using p-tyramine as substrate incubated for 15 mins by Amplex red and horseradish peroxidase based fluorescence assay.
In data set [9] the test system is SH-SY5Y. The data set is described as follows: Iron(III) chelating activity in FeNTA-treated human SH-SY5Y cells assessed as cell viability by measuring lysosomal activity at 10 uM measured after 24 hrs by neutral red uptake assay (reference value: 66.5 +/- […] %). The class given is cell-based.
Data set [10] concerns the target T2, Amine oxidase [flavin-containing] B. The experiment in a line: Inhibition of human MAO-B using p-tyramine as substrate at 10 uM incubated for 15 mins by Amplex red and horseradish peroxidase based fluorescence assay. To be noted: 0.25 h.

In general, IC50 refers to the concentration at which inhibition is half-maximal. In general, inhibition refers to the percentage by which the read-out fell short of the control. Read a high inhibition as strong suppression.

With `COc1ccc2occ(C(=O)Nc3ccc(O)cc3)c(=O)c2c1`, in data set [1], the “inhibition (INH)” value is on record as “Not Active”. Also, in data set [2], the Ratio IC50 is > 15.
For `COc1ccc2occ(C(=O)Nc3ccc(C)cc3)c(=O)c2c1`, the “inhibition (INH)” value in data set [1] was “Not Active”. For the same compound, in [2], the Ratio IC50 was > 48.
Consider `Cc1ccc(NC(=O)c2coc3ccc(O)cc3c2=O)cc1`, for which the “inhibition (INH)” value in [1] is listed as “Not Active”. This compound also showed an IC50 in [3] of 344 nM. In [2], the Ratio IC50 is > 29.
`O=C(Nc1ccc(O)cc1)c1coc2ccc(O)cc2c1=O`: the “inhibition (INH)” value in data set [1] is reported as “Not Active”. Also, in data set [3], the IC50 amounted to 4830 nM. The Ratio IC50 in data set [2] was > 2.1.
With `C[C@H](NCc1ccc(OCc2cccc(F)c2)cc1)C(N)=O` [SAFINAMIDE], in [4], the inhibition at 0.25 h stood at 23.7%.
Regarding `O=C(Nc1ccc(Cl)cc1)c1coc2cccc(O)c2c1=O`, the “inhibition (INH)” value in [1] is “Not Active”. For the same compound, the IC50 in data set [3] worked out at 8.3 nM. In addition, the Ratio IC50 in data set [2] was > 1200. Moreover, the viability at 24 h, up to 10 µM in [5] and in data set [6] was ≥ 94.4% throughout. Besides, the Activity in [7] worked out at 74.4%.
Turning to `O=C(Nc1cccc(Cl)c1)c1cc(=O)c2cc(O)ccc2o1`, the results for the IC50 in data set [8] and in data set [3] were 9000 nM and 68.9 nM, respectively. The Ratio IC50 in data set [2] is 130.
Consider `O=C(Nc1ccccc1)c1coc2cccc(O)c2c1=O`, for which the “inhibition (INH)” value in data set [1] is “Not Active”. In [3], this compound had an IC50 of 13 nM. The Ratio IC50 in data set [2] is > 769. Further, the viability at 24 h, up to 10 µM in data set [5] and in data set [6] was ≥ 94.4% throughout. For the same compound, the Activity in data set [9] worked out at 74.4%.
With `COc1ccc2oc(C(=O)Nc3ccc(C)cc3)cc(=O)c2c1`, in [10], the “inhibition (INH)” value was “Not Active”. Besides, in [8], the IC50 is 607 nM. In [2], the Ratio IC50 was > 0.061.
For `COc1ccc2occ(C(=O)Nc3ccc(C)c(C)c3)c(=O)c2c1`, the “inhibition (INH)” value in [1] is listed as “Not Active”. The IC50 in data set [3] amounted to 28.4 nM. Further, the Ratio IC50 in data set [2] was > 352.
`COc1ccc2occ(C(=O)Nc3ccc(Cl)cc3)c(=O)c2c1`: the “inhibition (INH)” value in data set [1] is “Not Active”. Moreover, in [2], the Ratio IC50 was > 970. The viability at 24 h, up to 10 µM in [5] and in [6] was ≥ 94.4% in each case.
For the compound `O=C(Nc1ccc(Cl)cc1)c1coc2ccc(O)cc2c1=O`, the IC50 in data set [8] is 6190 nM; in data set [3], 97.2 nM. Also, the Ratio IC50 in [2] was 64.
Regarding `COc1ccc2occ(C(=O)Nc3ccccc3)c(=O)c2c1`, the “inhibition (INH)” value in [1] is recorded as “Not Active”. The Ratio IC50 in data set [2] is > 239.
`O=C(Nc1ccccc1)c1cc(=O)c2cc(O)ccc2o1`: the “inhibition (INH)” value in [1] is given as “Not Active”. Besides, in data set [3], 31.3 nM corresponded to half-maximal inhibition (IC50). In addition, the Ratio IC50 in [2] was > 319.
With `O=C(Nc1ccc(O)cc1)c1cc(=O)c2cc(O)ccc2o1`, the “inhibition (INH)” value in data set [1] is “Not Active”. For the same compound, in [3], the midpoint of inhibition, the IC50, lay at 1030 nM. Besides, the Ratio IC50 in data set [2] was > 9.7.
For `COc1ccc2occ(C(=O)Nc3cccc(Cl)c3)c(=O)c2c1`, the “inhibition (INH)” value in data set [1] is given as “Not Active”. The IC50 in [3] was determined as 6.8 nM. Further, the Ratio IC50 in data set [2] is > 1470. Moreover, the viability at 24 h, up to 10 µM in [5] and in data set [6] was ≥ 94.4% throughout.
With `O=C(Nc1cccc(Cl)c1)c1coc2ccc(O)cc2c1=O`, the “inhibition (INH)” value in [1] is “Not Active”. For the same compound, in data set [3], the IC50 amounted to 29.8 nM. Moreover, the Ratio IC50 in [2] is > 336.
In the case of `O=C(Nc1ccc(Cl)cc1)c1cc(=O)c2cc(O)ccc2o1`, the “inhibition (INH)” value in [1] is recorded as “Not Active”. The compound further registered an IC50 in data set [3] of 14.3 nM. The Ratio IC50 in data set [2] is > 700. The viability at 24 h, up to 10 µM in data set [5] and in data set [6] was ≥ 94.4% in each case.
Take `O=C(Nc1cccc(Cl)c1)c1coc2cccc(O)c2c1=O`: in data set [1], the “inhibition (INH)” value is listed as “Not Active”. Further, the IC50 in data set [3] stood at 25 nM. In [2], the Ratio IC50 is > 400. For the same compound, the viability at 24 h, up to 10 µM in data set [5] and in data set [6] was ≥ 94.4% in each case. For the same compound, the Activity in data set [7] came out at 74.4%.
Consider `COc1ccc2oc(C(=O)Nc3ccccc3)cc(=O)c2c1`, for which the “inhibition (INH)” value in [1] and in data set [10] was “Not Active” throughout.
On to `COc1ccc2oc(C(=O)Nc3ccc(O)cc3)cc(=O)c2c1`, for which the “inhibition (INH)” value in [1] and in data set [10] was “Not Active” in each case.
Consider `Cc1ccc(NC(=O)c2cc(=O)c3cc(O)ccc3o2)cc1C`, for which the results for the half-inhibitory concentration (IC50) in data set [8] and in data set [3] were 3370 nM and 29.1 nM, respectively. In addition, in [2], the Ratio IC50 is 116.
For `Cc1ccc(NC(=O)c2cc(=O)c3cc(O)ccc3o2)cc1`, the “inhibition (INH)” value in [1] is on record as “Not Active”. The compound further yielded an IC50 in [3] of 55.1 nM. The Ratio IC50 in data set [2] was > 181.
As to `Cc1ccc(NC(=O)c2coc3cccc(O)c3c2=O)cc1`, in [1], the “inhibition (INH)” value is on record as “Not Active”. For the same compound, the IC50 in data set [3] amounted to 15.7 nM. The Ratio IC50 in [2] is > 637. The viability at 24 h, up to 10 µM in data set [5] and in [6] was ≥ 94.4% each time. In data set [7], the Activity came out at 74.4%.
With `COc1ccc2oc(C(=O)Nc3ccc(Cl)cc3)cc(=O)c2c1`, the “inhibition (INH)” value in data set [1] and in [10] was “Not Active” each time.
With `Cc1ccc(NC(=O)c2coc3ccc(O)cc3c2=O)cc1C`, the “inhibition (INH)” value in data set [1] was “Not Active”. This compound registered an IC50 in data set [3] of 262 nM. Besides, the Ratio IC50 in data set [2] is > 38.
In the case of `COc1ccc2oc(C(=O)Nc3cccc(Cl)c3)cc(=O)c2c1`, the “inhibition (INH)” value in data set [1] and in [10] was “Not Active” each time.
As for `Cc1ccc(NC(=O)c2coc3cccc(O)c3c2=O)cc1C`, in data set [1], the “inhibition (INH)” value was “Not Active”. The midpoint of inhibition in data set [3], the IC50, lay at 15.4 nM. Besides, in data set [2], the Ratio IC50 was > 649. Moreover, the viability at 24 h, up to 10 µM in data set [5] and in data set [6] was ≥ 94.4% throughout. Besides, the Activity in data set [7] turned out to be 74.4%.
With `COc1ccc2oc(C(=O)Nc3ccc(C)c(C)c3)cc(=O)c2c1`, the “inhibition (INH)” value in [1] and in [10] was “Not Active” in each case.
As to `O=C(Nc1ccc(O)cc1)c1coc2cccc(O)c2c1=O`, in [1], the “inhibition (INH)” value is “Not Active”. The compound further showed an IC50 in data set [3] of 598 nM. Besides, in data set [2], the Ratio IC50 was > 17.
For `O=C(Nc1ccccc1)c1coc2ccc(O)cc2c1=O`, in that order: “Not Active”, 240 nM and > 42.
